Values quoted from earlier work as cited in patent US20040037880A1, “Extended release formulation of divalproex sodium” (priority 2002, published 2004).
Like-named read-outs stand apart in the source and are kept apart here.

elimination half-life (adults): 6 to 17 h
elimination half-life (children): 4 to 14 h
SMILES: CCCC(CCC)C(=O)O [valproic acid]
